Results: patent US20080090278A1, “METHOD FOR ENHANCING STABILITY OF A COMPOSITION COMPRISING SOLUBLE GLUCOSE DEHYDROGENASE (GDH)” (TOYO BOSEKI KABUSHIKI KAISHA, priority 2006, published 2008)

Columns and labels:
[1] = system: recombinant FAD-GDH (rAO-FAD-GDH) derived from Aspergillus oryzae; assay: Thermal stabilization effect of stabilizing agents on rAO-FAD-GDH in solution (Examples 3-6); assay type: physicochemical; settings: for thermal stabilization effect on FAD-GDH (in words): 50° C. for 15 minutes, Example 3
Protocol: Enhancement of the thermal stability referred to herein means increasing of a residual ratio (%) of the GDH enzyme kept after giving the treatment with heat at a certain temperature for a certain time period to the composition comprising the GDH enzyme. In the present invention, the activity in the sample stored at 4° C. which is nearly completely kept is made 100%, this is compared with the activity in the GDH solution after giving the treatment with heat at a certain-temperature for a certain time period, and the residual ratio of the enzyme is calculated.
In the method for measuring the activity described in the method for measuring the GDH enzyme activity described later, an activity value (a) of GDH in the solution stored at 4° C. and an activity value (b) of GDH after giving the treatment with heat at a certain temperature for a certain time period were measured, a relative value[(b)/(a)×100] when the activity value (a) was made 100 was calculated. This relative value was made the residual ratio (%). Comparing the presence with the absence of the added compound, when the residual ratio was increased by the addition of the compound, it was determined that the thermal stability was enhanced.
In the present invention, the activity of FAD-dependent GDH is measured as follows.
The reaction-reagent is made by mixing 15.6 mL of the PIPES buffer, 0.2 mL of the DCPIP solution and 4 mL of the D-glucose solution.
(§1) The reaction reagent (3 mL) is preliminarily heated at 37° C. for 5 minutes. The GDH solution (0.1 mL) is added and gently mixed, subsequently the change of absorbance at 600 nm is recorded for 5 minutes using the spectrophotometer controlled to 37° C. using water as the control, and the change of absorbance per one minute (ΔODTEST) is calculated from the linear portion of the record. The solvent in which GDH will be dissolved in place of the blinded GDH solution is added to the reagent mixture, and the change of absorbance (ΔODBLANK) per one minute is measured. The GDH activity is calculated from these values according to the following formula. One unit (U) in the GDH activity is defined as the amount of the enzyme which reduces […] DCPIP for one minute in the presence of 200 mM D-glucose. Activity (U/mL)=[−(ΔODTEST−ΔODBLANK)×3.0×dilution scale]/(16.3×0.1×1.0) In the above formula, 3.0 represents a liquid amount (mL) of the reaction reagent+the enzyme solution, 16.3 represents a millimolar molecular absorbance coefficient (cm^2/μmol) in the condition for measuring this enzyme, 0.1 represents the liquid amount of the enzyme solution (mL) and 1.0 represents a light path length (cm) of the cell.
The study was performed in accordance with the method for measuring the FAD-GDH activity in Test Example 1 described above.
First, 50 mL of an enzyme solution obtained by dissolving the recombinant FAD-GDH (rAO-FAD-GDH)-derived from Aspergillus oryzae obtained in Example 1 at about 2 U/mL in an enzyme dilution solution (50 mM potassium phosphate buffer, pH 5.5, 0.1% Triton X-100) was prepared. Two tubes in which each stabilizing agent described in Table 1 had been added at each final concentration to 0.9 mL of this enzyme solution to make the total volume 1.0 mL were prepared.
(§2) In two tubes, one tube was stored at −4° C. and another tube was treated at 50° C. for 15 minutes. Then, the FAD-GDH activity in each tube was measured. The enzyme activity in the tube stored at 4° C. was made 100, and comparing with it, the activity value after being treated at 50° C. for 15 minutes was calculated as the residual activity ratio (%).
The method was in accordance with Example 3 described above.
The methods were in accordance with Example 3 above.

[2] = system: recombinant FAD-GDH (rAT-FAD-GDH) derived from Aspergillus terreus; assay: Thermal stabilization effect of stabilizing agents on rAT-FAD-GDH in solution (Example 9); assay type: physicochemical; settings: for Residual activity ratio (%) / GLD activity value (U/ml) 50° C., 15 min: Table 10, buffer 50 mM K-PB, stabilizer at each final concentration described in Table 1; for Residual activity ratio (%): 50° C., 15 min versus 4° C.; for thermal stabilization effect on FAD-GDH (in words): rAT-FAD-GDH, 50° C. for 15 minutes, Example 9
Protocol: as §1, with “D-glucose.” for “D-glucose. Activity (U/mL)=[−(ΔODTEST−ΔODBLANK)×3.0×dilution scale]/(16.3×0.1×1.0) In the above formula, 3.0 represents a liquid amount (mL) of the reaction reagent+the enzyme solution, 16.3 represents a millimolar molecular absorbance coefficient (cm^2/μmol) in the condition for measuring this enzyme, 0.1 represents the liquid amount of the enzyme solution (mL) and 1.0 represents a light path length (cm) of the cell.”
Two tubes in which each stabilizing agent described in Table 1 had been added at each final concentration to 0.9 mL of this enzyme solution to make the total volume 1.0 mL were prepared.
as §2, with “4°” for “−4°”

[3] = stabilizer final concentration 1%, rAO-FAD-GDH about 2 U/mL, 50 mM potassium phosphate buffer pH 5.5, 0.1% Triton X-100, 4° C. sample = 100
[4] = stabilizer final concentration 0.10%, rAO-FAD-GDH, pH 5.5

## O=C[C@H](O)[C@@H](O)[C@H](O)[C@H](O)C(=O)[O-].[Na+] [D-sodium glucuronate]
[1]; rAO-FAD-GDH
  thermal stabilization effect on FAD-GDH (in words): high effect
[1]; [3]
  Residual activity ratio (%) after treatment at 50° C., 15 min: 56.2%
[2]
  Residual activity ratio (%): 10.0%
  GLD activity value (U/ml) 50° C., 15 min: 0.279 U/ml
  thermal stabilization effect on FAD-GDH (in words): high effect

## OC[C@H]1O[C@@](CO)(O[C@H]2O[C@H](CO)[C@@H](O)[C@H](O)[C@H]2O)[C@@H](O[C@H]2O[C@H](CO)[C@@H](O)[C@H](O)[C@H]2O)[C@@H]1O [D-(+)-melezitose]
[1]; rAO-FAD-GDH
  thermal stabilization effect on FAD-GDH (in words): high effect
[1]; [3]
  Residual activity ratio (%) after treatment at 50° C., 15 min: 44.7%
[2]
  Residual activity ratio (%): 6.9%
  GLD activity value (U/ml) 50° C., 15 min: 0.193 U/ml
  thermal stabilization effect on FAD-GDH (in words): high effect

## O=C(O)[C@H]1CCCN1 [D-proline]
[1]; [3]
  Residual activity ratio (%) after treatment at 50° C., 15 min: 24.8%
[2]
  Residual activity ratio (%): 2.8%
  GLD activity value (U/ml) 50° C., 15 min: 0.079 U/ml

## O=C(O)C1OC(O)C(O)C(O)C1O [D-a-galacturonic acid]
[1]; [3]
  Residual activity ratio (%) after treatment at 50° C., 15 min: 0.0%
[2]
  Residual activity ratio (%): 0.2%
  GLD activity value (U/ml) 50° C., 15 min: 0.004 U/ml

## O=C(O)[C@@H]1CCCN1 [L-(−)-proline]
[1]; [3]
  Residual activity ratio (%) after treatment at 50° C., 15 min: 25.2%
[2]
  Residual activity ratio (%): 1.8%
  GLD activity value (U/ml) 50° C., 15 min: 0.048 U/ml

## Inulin
[1]; [3]
  Residual activity ratio (%) after treatment at 50° C., 15 min: 24.7%
[2]
  Residual activity ratio (%): 1.8%
  GLD activity value (U/ml) 50° C., 15 min: 0.053 U/ml

## N[C@@H](Cc1c[nH]c2ccccc12)C(=O)O [L-triptophan]
[1]; [4]
  Residual activity ratio (%) after treatment at 50° C., 15 min: 24.3%
[2]
  Residual activity ratio (%): 1.3%
  GLD activity value (U/ml) 50° C., 15 min: 0.034 U/ml

## NCCS(=O)(=O)O [Taurine]
[1]; rAO-FAD-GDH
  thermal stabilization effect on FAD-GDH (in words): high effect
[1]; [3]
  Residual activity ratio (%) after treatment at 50° C., 15 min: 23.8%
[2]
  Residual activity ratio (%): 3.2%
  GLD activity value (U/ml) 50° C., 15 min: 0.081 U/ml
  thermal stabilization effect on FAD-GDH (in words): high effect

## N[C@@H](Cc1ccccc1)C(=O)O [L-phenylalanine]
[1]; stabilizer final concentration 0.20%, rAO-FAD-GDH, pH 5.5
  Residual activity ratio (%) after treatment at 50° C., 15 min: 22.3%
[2]
  Residual activity ratio (%): 1.2%
  GLD activity value (U/ml) 50° C., 15 min: 0.031 U/ml

## O=C(O)[C@@H]1CCCN1 [proline]
[1]; rAO-FAD-GDH
  thermal stabilization effect on FAD-GDH (in words): high effect
[2]
  thermal stabilization effect on FAD-GDH (in words): high effect

## O=C(O)CCCC(=O)O [Glutaric acid]
[1]; rAO-FAD-GDH
  thermal stabilization effect on FAD-GDH (in words): high effect
[2]
  thermal stabilization effect on FAD-GDH (in words): high effect

## O=C([O-])[C@H](O)[C@@H](O)[C@H](O)[C@H](O)CO.[Na+] [sodium gluconate]
[1]; rAO-FAD-GDH
  thermal stabilization effect on FAD-GDH (in words): high effect
[1]; [3]
  Residual activity ratio (%) after treatment at 50° C., 15 min: 33.5%
[2]
  Residual activity ratio (%): 3.9%
  GLD activity value (U/ml) 50° C., 15 min: 0.111 U/ml
  thermal stabilization effect on FAD-GDH (in words): high effect

## N[C@H](Cc1ccccc1)C(=O)O [D-phenylalanine]
[1]; [4]
  Residual activity ratio (%) after treatment at 50° C., 15 min: 23.6%
[2]
  Residual activity ratio (%): 2.3%
  GLD activity value (U/ml) 50° C., 15 min: 0.062 U/ml

## OC[C@H]1O[C@@](CO)(O[C@H]2O[C@H](CO)[C@@H](O)[C@H](O)[C@H]2O)[C@@H](O)[C@@H]1O [Sucrose]
[1]; rAO-FAD-GDH
  thermal stabilization effect on FAD-GDH (in words): high effect
[1]; [3]
  Residual activity ratio (%) after treatment at 50° C., 15 min: 44.1%
[2]
  Residual activity ratio (%): 2.1%
  GLD activity value (U/ml) 50° C., 15 min: 0.058 U/ml
  thermal stabilization effect on FAD-GDH (in words): high effect

## O=C[C@H](O)[C@@H](O)[C@H](O)CO [D-(+)-xylose]
[1]; rAO-FAD-GDH
  thermal stabilization effect on FAD-GDH (in words): high effect
[1]; [3]
  Residual activity ratio (%) after treatment at 50° C., 15 min: 68.5%
[2]
  Residual activity ratio (%): 18.5%
  GLD activity value (U/ml) 50° C., 15 min: 0.516 U/ml
  thermal stabilization effect on FAD-GDH (in words): high effect

## N=C(N)NCCC[C@H](N)C(=O)O [L-arginine]
[1]; [3]
  Residual activity ratio (%) after treatment at 50° C., 15 min: 1.1%
[2]
  Residual activity ratio (%): 0.1%
  GLD activity value (U/ml) 50° C., 15 min: 0.001 U/ml

## N[C@H](CCC(=O)O)C(=O)O [D-glutamic acid]
[1]; rAO-FAD-GDH
  thermal stabilization effect on FAD-GDH (in words): high effect
[1]; [4]
  Residual activity ratio (%) after treatment at 50° C., 15 min: 23.2%
[2]
  Residual activity ratio (%): 5.6%
  GLD activity value (U/ml) 50° C., 15 min: 0.149 U/ml
  thermal stabilization effect on FAD-GDH (in words): high effect

## O=C(O)CCC(=O)O [Succinic acid]
[1]; rAO-FAD-GDH
  thermal stabilization effect on FAD-GDH (in words): high effect
[2]
  thermal stabilization effect on FAD-GDH (in words): high effect

## CO[C@H]1O[C@H](CO)[C@@H](O)[C@H](O)[C@H]1O [Methyl-a-D-glucoside]
[1]; rAO-FAD-GDH
  thermal stabilization effect on FAD-GDH (in words): high effect
[1]; [3]
  Residual activity ratio (%) after treatment at 50° C., 15 min: 53.6%
[2]
  Residual activity ratio (%): 9.4%
  GLD activity value (U/ml) 50° C., 15 min: 0.267 U/ml
  thermal stabilization effect on FAD-GDH (in words): high effect

## CC(C)[C@H](N)C(=O)O [L-valine]
[1]; stabilizer final concentration 0.50%, rAO-FAD-GDH, pH 5.5
  Residual activity ratio (%) after treatment at 50° C., 15 min: 25.5%
[2]
  Residual activity ratio (%): 1.6%
  GLD activity value (U/ml) 50° C., 15 min: 0.043 U/ml
